In patent US9499495B2, “Quinazolines and azaquinazolines as dual inhibitors of RAS/RAF/MEK/ERK and PI3K/AKT/PTEN/mTOR pathways” (Asana Biosciences, LLC, priority 2013, dated 2016):

How the values were obtained:
mTOR kinase = molecular target: T1, mTOR kinase (Homo sapiens, UniProt P42345); test: mTOR kinase TR-FRET assay; format: biochemical
T1 construct: purchased Millipore, US
Summary of the method: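 TR-FRET with ULight-p70 S6K (Thr 389) peptide (50 nM) and 20 μM ATP in 50 mM HEPES pH 7.5, 1 mM EGTA, 3 mM MnCl2; compound pre-incubated with enzyme before substrate addition, reaction at rt, EDTA-stopped. Eu anti-phospho antibody read 665/615 nm; IC50 from sigmoidal dose-response fit.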

RKO cells = test: XTT assay for cell viability, RKO cells; format: cell-based; details: Homo sapiens, 72 h
Summary of the method: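 RKO and A375 cells seeded at 1000-2000/well overnight, then exposed to compound for 72 h at 37° C., 5% CO2. XTT (1 mg/ml)/PMS (25 μM) added for 2-3 h; absorbance at 450 nm. Growth relative to DMSO control (100%); GI50 from sigmoidal dose-response fit.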

B-RAFV600E = molecular target: T2, B-RAFV600E (Homo sapiens, UniProt P15056, V600E); test: B-RAFV600E radiometric assay; format: biochemical; details: read-out: Kinase assay B-Raf
T2 construct: purchased Millipore, USA 14-557
Summary of the method: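 B-RAFV600E was preincubated 45 min at rt with compound in 1% DMSO. MEK-K97M (0.5 μg), 5 μM final cold ATP and [γ-32P]ATP were then added for 2 h at rt. Phosphorylated MEK was captured on P81 paper and scintillation-counted; IC50 came from a sigmoidal dose-response fit.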

T1 sequence (P42345 1362-2549 limits assumed): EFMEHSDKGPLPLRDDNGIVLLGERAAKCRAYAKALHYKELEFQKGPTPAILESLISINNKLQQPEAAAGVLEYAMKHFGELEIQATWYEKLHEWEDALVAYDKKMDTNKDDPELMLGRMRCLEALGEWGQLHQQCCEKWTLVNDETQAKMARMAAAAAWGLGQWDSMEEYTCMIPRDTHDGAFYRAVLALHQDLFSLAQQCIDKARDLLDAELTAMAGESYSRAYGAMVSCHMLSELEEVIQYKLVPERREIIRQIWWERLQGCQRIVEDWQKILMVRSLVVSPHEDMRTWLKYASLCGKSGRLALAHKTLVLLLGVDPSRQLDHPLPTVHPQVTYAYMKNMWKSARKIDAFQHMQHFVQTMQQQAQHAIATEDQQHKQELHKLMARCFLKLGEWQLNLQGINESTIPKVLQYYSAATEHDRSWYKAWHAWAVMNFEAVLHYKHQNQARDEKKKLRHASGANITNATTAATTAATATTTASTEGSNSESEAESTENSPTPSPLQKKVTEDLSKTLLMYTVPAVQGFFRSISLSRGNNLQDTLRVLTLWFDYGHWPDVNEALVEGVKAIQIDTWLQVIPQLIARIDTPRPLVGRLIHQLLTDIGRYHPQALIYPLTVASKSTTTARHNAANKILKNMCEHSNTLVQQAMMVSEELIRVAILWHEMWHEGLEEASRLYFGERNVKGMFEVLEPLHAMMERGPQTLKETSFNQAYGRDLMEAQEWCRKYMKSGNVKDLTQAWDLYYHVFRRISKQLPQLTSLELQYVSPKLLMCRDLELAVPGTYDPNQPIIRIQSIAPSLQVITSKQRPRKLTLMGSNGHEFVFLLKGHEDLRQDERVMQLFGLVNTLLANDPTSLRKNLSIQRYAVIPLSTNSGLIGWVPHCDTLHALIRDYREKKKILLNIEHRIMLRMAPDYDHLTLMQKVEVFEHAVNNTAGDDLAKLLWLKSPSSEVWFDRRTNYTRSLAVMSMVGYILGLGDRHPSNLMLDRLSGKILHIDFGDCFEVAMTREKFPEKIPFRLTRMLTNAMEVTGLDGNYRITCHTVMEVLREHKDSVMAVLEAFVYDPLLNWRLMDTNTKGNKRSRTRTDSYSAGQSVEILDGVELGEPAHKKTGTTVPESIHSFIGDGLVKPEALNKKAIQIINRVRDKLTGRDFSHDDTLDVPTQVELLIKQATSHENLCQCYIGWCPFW
T2 sequence (P15056 416-766 V600E limits assumed): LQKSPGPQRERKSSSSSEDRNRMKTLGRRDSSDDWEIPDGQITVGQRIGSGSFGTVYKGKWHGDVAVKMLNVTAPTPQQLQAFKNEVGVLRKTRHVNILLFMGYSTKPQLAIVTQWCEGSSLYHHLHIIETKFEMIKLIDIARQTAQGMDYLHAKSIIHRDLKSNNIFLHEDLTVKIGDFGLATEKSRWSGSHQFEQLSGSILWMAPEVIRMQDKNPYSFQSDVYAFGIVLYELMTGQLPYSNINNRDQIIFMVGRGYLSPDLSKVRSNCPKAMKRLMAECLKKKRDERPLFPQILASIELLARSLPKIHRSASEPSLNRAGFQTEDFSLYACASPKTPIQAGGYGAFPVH

Row | IC50 (mTOR kinase) | IC50 (B-RAFV600E) | SMILES | IC50 (RKO cells)
1 | 100 to 1000 nM | 100 to 1000 nM | CCCS(=O)(=O)Nc1cccc(-c2ccc3nc(-c4cnc(N)nc4)nc(N4CCOCC4)c3n2)c1F [Example 7, N-(3-(2-(2-aminopyrimidin-5-yl)-4-morpholinopyrido[3,2-d]pyrimidin-6-yl)-2-fluorophenyl)propane-1-sulfonamide] | 100 to 1000 nM
2 | 1 to 100 nM | 1 to 100 nM | COc1cc2nc(-c3cnc(N)nc3)nc(N3CCOCC3)c2cc1-c1cccc(NS(=O)(=O)CCCF)c1F [Example 11, N-(3-(2-(2-aminopyrimidin-5-yl)-7-methoxy-4-morpholinoquinazolin-6-yl)-2-fluorophenyl)-3-fluoropropane-1-sulfonamide] | 100 to 1000 nM
3 | 1 to 100 nM | 1 to 100 nM | CNC(=O)Nc1ccc(-c2nc(N3CCOCC3)c3cc(-c4cccc(NS(=O)(=O)CCCF)c4F)cc(OC)c3n2)cn1 [Example 39, 3-fluoro-N-(2-fluoro-3-(8-methoxy-2-(6-(3-methylureido)pyridin-3-yl)-4-morpholinoquinazolin-6-yl)phenyl)propane-1-sulfonamide] | 
4 | 1 to 100 nM | 1 to 100 nM | COc1cc(-c2cccc(NS(=O)(=O)CCCF)c2F)cc2c(N3CCOC[C@H]3C)nc(-c3cnc(N)nc3)nc12 [Example 43, (R)-N-(3-(2-(2-aminopyrimidin-5-yl)-8-methoxy-4-(3-methylmorpholino)quinazolin-6-yl)-2-fluorophenyl)-3-fluoropropane-1-sulfonamide] | 100 to 1000 nM
5 | 1 to 100 nM | 1 to 100 nM | Nc1ncc(-c2nc(N3CCOCC3)c3cc(-c4cccc(NS(=O)(=O)CCCF)c4F)cc(N4CCOCC4)c3n2)cn1 [Example 69, N-(3-(2-(2-aminopyrimidin-5-yl)-4,8-dimorpholinoquinazolin-6-yl)-2-fluorophenyl)-3-fluoropropane-1-sulfonamide] | 
6 | 1 to 100 nM | 1 to 100 nM | COc1cc(-c2c(F)ccc(NS(=O)(=O)CCCF)c2F)cc2c(N3CCOCC3)nc(-c3ccc(N)nc3)nc12 [Example 79, N-(3-(2-(6-aminopyridin-3-yl)-8-methoxy-4-morpholinoquinazolin-6-yl)-2,4-difluorophenyl)-3-fluoropropane-1-sulfonamide] | 100 to 1000 nM
7 | 1 to 100 nM | 100 to 1000 nM | CCCS(=O)(=O)Nc1cccc(-c2ccc3nc(-c4ccc(N)nc4)nc(N4CCOCC4)c3n2)c1F [Example 86, N-(3-(2-(6-aminopyridin-3-yl)-4-morpholinopyrido[3,2-d]pyrimidin-6-yl)-2-fluorophenyl)propane-1-sulfonamide] | 100 to 1000 nM
8 | 1 to 100 nM | 1 to 100 nM | Nc1ncc(-c2nc(N3CCOCC3)c3nc(-c4cccc(NS(=O)(=O)CCCF)c4F)ccc3n2)cn1 [Example 87, N-(3-(2-(2-aminopyrimidin-5-yl)-4-morpholinopyrido[3,2-d]pyrimidin-6-yl)-2-fluorophenyl)-3-fluoropropane-1-sulfonamide] | 100 to 1000 nM
9 | 1 to 100 nM | 1 to 100 nM | Nc1ccc(-c2nc(N3CCOCC3)c3nc(-c4cccc(NS(=O)(=O)CCCF)c4F)ccc3n2)cn1 [Example 88, N-(3-(2-(6-aminopyridin-3-yl)-4-morpholinopyrido[3,2-d]pyrimidin-6-yl)-2-fluorophenyl)-3-fluoropropane-1-sulfonamide] | 100 to 1000 nM
10 | 100 to 1000 nM | 1 to 100 nM | Cc1cc(-c2nc(N3CCOCC3)c3nc(-c4cccc(NS(=O)(=O)CCCF)c4F)ccc3n2)cnc1N [Example 90, N-(3-(2-(6-amino-5-methylpyridin-3-yl)-4-morpholinopyrido[3,2-d]pyrimidin-6-yl)-2-fluorophenyl)-3-fluoropropane-1-sulfonamide] | 
11 | 100 to 1000 nM | 1 to 100 nM | Nc1ccc(-c2nc(N3CCOCC3)c3nc(-c4cccc(NS(=O)(=O)c5cc(F)ccc5F)c4F)ccc3n2)cn1 [Example 92, N-(3-(2-(6-aminopyridin-3-yl)-4-morpholinopyrido[3,2-d]pyrimidin-6-yl)-2-fluorophenyl)-2,5-difluorobenzenesulfonamide] | 1000 to 10000 nM
12 | 100 to 1000 nM | 1 to 100 nM | Nc1ncc(-c2nc(N3CCOCC3)c3nc(-c4cccc(NS(=O)(=O)c5cc(F)ccc5F)c4F)ccc3n2)cn1 [Example 93, N-(3-(2-(2-aminopyrimidin 5-yl)-4-morpholinopyrido[3,2-d]pyrimidin-6-yl)-2-fluorophenyl)-2,5-difluorobenzenesulfonamide] | 100 to 1000 nM
13 | 1 to 100 nM | 1 to 100 nM | Nc1cc(C(F)(F)F)c(-c2nc(N3CCOCC3)c3nc(-c4cccc(NS(=O)(=O)CCCF)c4F)ccc3n2)cn1 [Example 94, N-(3-(2-(6-amino-4-(trifluoromethyl)pyridin-3-yl)-4-morpholinopyrido[3,2-d]pyrimidin-6-yl)-2-fluorophenyl)-3-fluoropropane-1-sulfonamide] | 100 to 1000 nM
14 | 1 to 100 nM | 1 to 100 nM | Nc1ccc(-c2nc(N3CCOCC3)c3nc(-c4cccc(NS(=O)(=O)c5c(F)cccc5F)c4F)ccc3n2)cn1 [Example 95, N-(3-(2-(6-aminopyridin-3-yl)-4-morpholinopyrido[3,2-d]pyrimidin-6-yl)-2-fluorophenyl)-2,6-difluorobenzenesulfonamide] | 1000 to 10000 nM
15 | 100 to 1000 nM | 1 to 100 nM | C[C@@H]1COCCN1c1nc(-c2ccc(N)nc2)nc2ccc(-c3cccc(NS(=O)(=O)CCCF)c3F)nc12 [Example 96, (R)-N-(3-(2-(6-aminopyridin-3-yl)-4-(3-methylmorpholino)pyrido[3,2-d]pyrimidin-6-yl)-2-fluorophenyl)-3-fluoropropane-1-sulfonamide] | 100 to 1000 nM
16 | 100 to 1000 nM | 1 to 100 nM | C[C@@H]1COCCN1c1nc(-c2cnc(N)nc2)nc2ccc(-c3cccc(NS(=O)(=O)CCCF)c3F)nc12 [Example 97, (R)-N-(3-(2-(2-aminopyrimidin-5-yl)-4-(3-methylmorpholino)pyrido[3,2-d]pyrimidin-6-yl)-2-fluorophenyl)-3-fluoropropane-1-sulfonamide] | 100 to 1000 nM
17 | 1 to 100 nM | 1 to 100 nM | O=S(=O)(CCCF)Nc1cccc(-c2ccc3nc(-c4ccc(NCCO)nc4)nc(N4CCOCC4)c3n2)c1F [Example 99, 3-fluoro-N-(2-fluoro-3-(2-(6-((2-hydroxyethyl)amino)pyridin-3-yl)-4-morpholinopyrido[3,2-d]pyrimidin-6-yl)phenyl)propane-1-sulfonamide] | 100 to 1000 nM
18 | 100 to 1000 nM | 1 to 100 nM | Cc1cc(N)ncc1-c1nc(N2CCOCC2)c2nc(-c3cccc(NS(=O)(=O)CCCF)c3F)ccc2n1 [Example 101, N-(3-(2-(6-amino-4-methylpyrtdin-3-yl)-4-morpholinopyrldo[3,2-d]pyrimidin-6-yl)-2-fluorophenyl)-3-fluoropropane-1-sulfonamide] | 100 to 1000 nM
19 | 1 to 100 nM | 1 to 100 nM | Nc1cc(F)c(-c2nc(N3CCOCC3)c3nc(-c4cccc(NS(=O)(=O)CCCF)c4F)ccc3n2)cn1 [Example 102, N-(3-(2-(6-amino-4-fluoropyridin-3-yl)-4-morpholinopyrido[3,2-d]pyrimidin-6-yl)-2-fluorophenyl)-3-fluoropropane-1-sulfonamide] | 100 to 1000 nM
20 | 1 to 100 nM | 1 to 100 nM | Nc1cc(C(F)(F)F)c(-c2nc(N3CCOCC3)c3nc(-c4cccc(NS(=O)(=O)c5c(F)cccc5F)c4F)ccc3n2)cn1 [Example 106, N-(3-(2-(6-amino-4-(trifluoromethyl)pyridin-3-yl)-4-morpholinopyrido[3,2-d]pyrimidin-6-yl)-2-fluorophenyl)-2,6-difluorobenzenesulfonamide] | 
21 | 100 to 1000 nM | 1 to 100 nM | C[C@H]1COCCN1c1nc(-c2cnc(N)cc2C(F)(F)F)nc2ccc(-c3cccc(NS(=O)(=O)CCCF)c3F)nc12 [Example 108, (S)-N-(3-(2-(6-amino-4-(trifluoromethyl)pyrldin-3-yl)-4-(3-methylmorpholino)pyrido[3,2-d]pyrimidin-6-yl)-2-fluorophenyl)-3-fluoropropane-1-sulfonamide] | 100 to 1000 nM
22 | 1 to 100 nM | 1 to 100 nM | O=S(=O)(CCCF)Nc1cccc(-c2ccc3nc(-c4ccc(NCCCO)nc4)nc(N4CCOCC4)c3n2)c1F [Example 111, 3-fluoro-N-(2-fluoro-3-(2-(6-((3-hydroxypropyl)amino)pyridin-3-yl)-4-morpholinopyrido[3,2-d]pyrimidin-6-yl)phenyl)propane-1-sulfonamide] | 
23 | 100 to 1000 nM | 1 to 100 nM | Cc1cc(-c2cccc(NS(=O)(=O)CCCF)c2F)cc2c(N3CCOCC3)nc(-c3cnc(N)nc3)nc12 [Example 116, N-(3-(2-(2-aminopyrimidin-5-yl)-8-methyl-4-morpholinoquinazolin-6-yl)-2-fluorophenyl)-3-fluoropropane-1-sulfonamide] | 
24 | 1 to 100 nM | 1 to 100 nM | C[C@H]1COCCN1c1nc(-c2cnc(N)cc2F)nc2ccc(-c3cccc(NS(=O)(=O)CCCF)c3F)nc12 [Example 129, (S)-N-(3-(2-(6-amino-4-fluoropyridin-3-yl)-4-(3-methylmorpholino)pyrido[3,2-d]pyrimidin-6-yl)-2-fIuorophenyl)-3-fluoropropane-1-sulfonamide] | 
